Like-named read-outs stand apart in the source and are kept apart here.
Key:
NCTC-2544 cells [1] = tested on: NCTC-2544 cells
Description: (§1) An immortalized, nontumorigenic cell line of human keratinocytes (NCTC-2544) was grown in a DMEM medium (Sigma-Aldrich Milan, Italy), supplemented with 115 units/mL of penicillin G, 115 μg/mL streptomycin, and 10% fetal calf serum (Invitrogen, Milan, Italy). Individual wells of a 96-well tissue culture microtiter plates (Falcon, Becton–Dickinson) were inoculated with 100 μL of complete medium containing 5 × 10^3 NCTC-2544. The plates were incubated at 37 °C in a humidified (5% CO2) incubator for 18 h prior to the experiments.
(§2) After medium removal, 100 μL of the drug solution, dissolved in DMSO and diluted in DMEM medium, was added to each well, incubated at 37 °C for 72 h. Final DMSO concentration never exceeded 0.5%. Cell viability was assayed by the MTT (3–(4,5-dimethylthiazol-2-yl)-2,5 diphenyl tetrazolium bromide) test as previously described by Mosmann[27].
(§3) The tests were conducted using a specific cell line of human keratinocytes (NCTC-2544). To assess cell viability, in the presence of the study compounds, before and after the irradiation, the MTT assay was performed[27]. The cytotoxicity was checked after 72 h from the incubation of the keratinocytes with compounds; moreover, the same experiments were performed in the presence of the parent PBSA.

NCTC-2544 cells [2] = test: Cytotoxicity, MTT test, 72 h; settings: read-out: IC50 cytotoxicity; NCTC-2544 human keratinocytes, 72 h, MTT
Description: as §1, §2, §3

[3] = type: physicochemical
Description: HPLC analysis was performed using an Agilent 1100 Series HPLC System equipped with a G1315A DAD, and with a Hydro-RP C18 Synergi 80 Å column (4.6 × 150 mm, 4 μm) from Phenomenex, maintained at 25 °C during all the time of the analysis. The mobile phase consisted of water (0.01 M H3PO4) (solvent A) and acetonitrile (0.01 M H3PO4) (solvent B). • PBSA and 3: the determination was carried out in isocratic condition, A: 91%/B: 9%. Separation was monitored with absorbance detection at λmax of the molecule ±8 nm. The flow rate was 1.0 mL/min. • […]: the determination was carried out in isocratic condition, A: 84%/B: 16%. Separation was monitored with absorbance detection at λmax of the molecule ±8 nm. The flow rate was 1.0 mL/min
Molecules 3 and 12 were challenged in accelerated stability studies against the parent compound. The formulations were submitted to accelerated aging at 40 °C and analyzed at specific intervals, with HPLC.

Row | Compound | IC50 (NCTC-2544 cells [1]) | IC50 (NCTC-2544 cells [2]) | % of remaining compounds T0 [3] | % of remaining compounds T7 [3] | % of remaining compounds T14 [3] | % of remaining compounds T21 [3] | % of remaining compounds T28 [3] | % of remaining compounds T35 [3] | % of remaining compounds T49 [3] | % of remaining compounds T63 [3]
1 | 2-(2,4-Dihydroxy-phenyl)-1H-benzimidazole [Compound 9] | > 50 µM |  |  |  |  |  |  |  |  | 
2 | 2-(2-Hydroxy-phenyl)-1H-benzimidazole [Compound 10] |  | > 50 µM |  |  |  |  |  |  |  | 
3 | O=S(=O)(O)c1ccc2[nH]c(-c3ccc(O)c(O)c3)nc2c1 [Compound 3, 2-(3,4-Dihydroxy-phenyl)-1H-benzimidazole-5-sulfonic acid] |  |  | 100% | 96,7% | 89,6% | 86,3% | 73,4% | 73,4% | 67,6% | 64,6%
4 | O=C(O)c1ccc2[nH]c(-c3ccc(O)c(O)c3)nc2c1 [Compound 12, 2-(3,4-Dihydroxy-phenyl)-1H-benzimidazole-5-carboxylic acid] |  |  | 100% | 95,4% | 95,4% | 95,1% | 92,8% | 86,9% | 86,9% | 86,8%
5 | O=S(=O)(O)c1ccc2[nH]c(-c3ccccc3)nc2c1 [PBSA, 2-phenyl-1H-benzimidazole-5-sulfonic acid, reference compound] |  |  | 100% | 99,4% | 98,1% | 97,2% | 96,4% | 94% | 92% | 90%

From publication PMC6010047, “Design, synthesis and biological evaluation of novel hydroxy-phenyl-1H-benzimidazoles as radical scavengers and UV-protective agents” (Journal of Enzyme Inhibition and Medicinal Chemistry, 2017)
